Data reported in US12534699B2, “Method for promoting growth of bacteria of genus Bifidobacterium” (KABUSHIKI KAISHA YAKULT HONSHA, priority 2019, dated 2026).

Test system: Bifidobacterium breve YIT 12272 (BbY)
Assay: Culture of BbY in whey culture medium with L-cystine or L-cysteine
Type: cell-based
Conditions: for concentration at which the viable cell count was maximum: whey simultaneous heating culture medium, 12 hours
Procedure: A skimmed milk powder was dissolved in RO water at 12% (w/v), and the 12% (w/v) skimmed milk was adjusted to a pH of 4.6 with 5 N HCl, followed by centrifugation at 3,000×g for 5 minutes. Subsequently, the supernatant was adjusted to a pH of 6.5 with 5 N NaOH and was centrifuged at 10,000×g for 15 to 30 minutes. The supernatant was dispensed in 10 mL aliquots in a rimmed medium-sized test tube while replacing the headspace with nitrogen gas and sealed with a butyl rubber stopper. Subsequently, the supernatant was sterilized by heat in an autoclave at 115° C. for 30 minutes to provide a whey culture medium separated before heating. In addition, as in the skimmed milk culture medium, simultaneous heating culture medium was prepared in anaerobic conditions by adding L-cystine or L-cysteine before heating and then performing heat sterilization. The addition concentration of L-cystine or L-cysteine was adjusted to 0.001, 0.003, 0.005, 0.01, 0.03, 0.05, or 0.1% (w/v) as the final concentration.
Inoculation and culture were performed as in Example 1 except that only when BbY was cultured in the skimmed milk culture medium, the culture time was 9 hours.
As in Example 2, whey separated before heating and simultaneous heating culture media with L-cysteine was prepared. In addition, a culture medium in which L-cysteine was added after heat sterilization and immediately before inoculation (individual heating culture medium) was also prepared. The addition concentration of L-cysteine was 0.03 (w/v) % as the final concentration.
A skimmed milk powder was dissolved in RO water at 12% (w/v), and the 12% (w/v) skimmed milk was sterilized by heat in an autoclave at 115° C. for 30 minutes in anaerobic conditions by nitrogen gas and was then adjusted to a pH of 4.6 with 5 N HCl, followed by centrifugation at 3,000×g for 5 minutes. Subsequently, the supernatant was adjusted to a pH of 6.5 with 5 N NaOH and was centrifuged at 10,000×g for 15 to 30 minutes. The supernatant was dispensed in 10 mL aliquots in a pre-sterilized rimmed medium-sized test tube while replacing the headspace with nitrogen gas and sealed with a butyl rubber stopper to provide a whey culture medium separated after heating. In addition, as in the skimmed milk culture media of Example 1, in anaerobic conditions, a culture medium in which L-cysteine was added before heating and then heat sterilization was performed (simultaneous heating culture medium) and a culture medium in which addition was performed after heat sterilization and before adjustment to pH 4.6 (individual heating culture medium) were also prepared.
Inoculation and culture were performed as in Example 1.
Based on the viable cell counts in (iii), each viable cell count ratio was calculated by dividing the viable cell count in the simultaneous heating culture medium by the viable cell count in the individual heating culture medium.

[1] = whey separated after heating, L-cysteine, individual heating, culture time 9 h
[2] = whey separated after heating, L-cysteine, individual heating, culture time 12 h
[3] = whey separated after heating, L-cysteine, simultaneous heating, culture time 9 h
[4] = whey separated after heating, L-cysteine, simultaneous heating, culture time 12 h
[5] = whey separated before heating, L-cysteine 0.03 (w/v) %, individual heating, culture time 9 h
[6] = whey separated before heating, L-cysteine 0.03 (w/v) %, individual heating, culture time 12 h
[7] = whey separated before heating, L-cysteine 0.03 (w/v) %, simultaneous heating, culture time 9 h
[8] = whey separated before heating, L-cysteine 0.03 (w/v) %, simultaneous heating, culture time 12 h

Cl.N[C@@H](CS)C(=O)O [L-cysteine, L-cysteine hydrochloride]
Acidity [1]: 3.43 ml/9 g
Viable cell count [1]: 8.89 × 10^8 CFU/ml
pH [1]: 5.14
Acidity [2]: 4.78 ml/9 g
Viable cell count [2]: 1.32 × 10^9 CFU/ml
pH [2]: 4.81
Acidity [3]: 4.23 ml/9 g
Viable cell count [3]: 1.29 × 10^9 CFU/ml
pH [3]: 4.85
Acidity [4]: 7.28 ml/9 g
Viable cell count [4]: 2.22 × 10^9 CFU/ml
pH [4]: 4.32
Viable cell count ratio (simultaneous/individual) (whey separated after heating, culture time 9 h): 1.45
Viable cell count ratio (simultaneous/individual) (whey separated after heating, culture time 12 h): 1.68
Acidity [5]: 2.15 ml/9 g
Viable cell count [5]: 1.24 × 10^8 CFU/ml
pH [5]: 4.97
Acidity [6]: 2.55 ml/9 g
Viable cell count [6]: 1.42 × 10^8 CFU/ml
pH [6]: 4.82
Acidity [7]: 2.15 ml/9 g
Viable cell count [7]: 2.53 × 10^8 CFU/ml
pH [7]: 5.01
Acidity [8]: 2.29 ml/9 g
Viable cell count [8]: 3.29 × 10^8 CFU/ml
pH [8]: 4.85
Viable cell count ratio (simultaneous/individual) (whey separated before heating, culture time 9 h): 2.04
Viable cell count ratio (simultaneous/individual) (whey separated before heating, culture time 12 h): 2.31
concentration at which the viable cell count was maximum: 0.01 % (w/v)

N[C@@H](CSSC[C@H](N)C(=O)O)C(=O)O [L-cystine]
concentration at which the viable cell count was maximum: 0.01 % (w/v)
